Results from US6063964A, “5-hydroxymethyl-2-aminotetralins as cardiovascular agents” (Zambon Group S.p.A., priority 1997, dated 2000).

Key:
[1] = target: T1, dopaminergic receptors D2 (Oryctolagus cuniculus, UniProt G1T1Q0); experiment: D2 activity in the rabbit ear artery (REA), electrically stimulated isolated artery rings; conditions: rabbit central ear artery rings, electrically stimulated (10 Hz); cumulative administration; agonistic activity at peak of effect; read-out: D2 activity (REA) expressed as pD2, i.e. -logEC50 (converted)
T1 construct: The central ear artery was cut into 3 mm-rings; from tissue; host or cells: central ear artery rings of male New Zealand rabbits
T1 sequence (G1T1Q0 1-443): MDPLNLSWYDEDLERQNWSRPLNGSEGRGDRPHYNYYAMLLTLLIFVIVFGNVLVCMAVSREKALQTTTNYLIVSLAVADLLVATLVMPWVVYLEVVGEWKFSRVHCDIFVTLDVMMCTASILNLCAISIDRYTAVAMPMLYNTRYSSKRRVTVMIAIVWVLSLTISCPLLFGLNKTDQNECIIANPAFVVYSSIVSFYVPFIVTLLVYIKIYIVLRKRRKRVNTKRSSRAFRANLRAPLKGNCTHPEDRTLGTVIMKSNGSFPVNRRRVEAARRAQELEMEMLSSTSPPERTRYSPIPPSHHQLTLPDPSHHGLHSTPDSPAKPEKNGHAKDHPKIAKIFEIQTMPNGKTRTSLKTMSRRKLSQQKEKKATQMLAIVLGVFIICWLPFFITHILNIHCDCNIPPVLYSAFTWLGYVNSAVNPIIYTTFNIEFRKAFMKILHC
Experimental: Evaluation of the D2 activity in the rabbit ear artery (REA)
Artery rings were prepared following the method described by Steinsland et al., Science, 1978, 443, 199, modified as follows.
Male New Zealand rabbits (weighing 2.5-3 Kg) were sacrificed by a pentobarbital intravenous injection and bled. The central ear artery was cut into 3 mm-rings.
The samples were placed into a 25 ml-bath containing a Krebs solution (mM/l): sodium chloride 118, potassium chloride 4.7, calcium chloride 2.5, magnesium sulphate 1.2, sodium hydrocarbonate 25, potassium biphosphate 1.2, glucose 11.1, balanced with oxygen 95%/carbon dioxide 5% and maintained at 35±1° C. The Krebs solution was added with EDTA (10 μM) to prevent the cathecolamine oxidation, with desipramine (0,1 μM) and corticosterone (30 μM) to stop the neuronal and extraneuronal cathecolamine re-uptake.
The samples were electrically stimulated (10 Hz, 1 msec., 40-80 mA, 500 msec long) at intervals of 5 minutes.
(§1) The tested compounds were cumulatively administered.
(§2) Dopamine was used as reference compound.

[2] = target: dopaminergic receptors D1 (Oryctolagus cuniculus, UniProt G1SML2); experiment: D1 activity on the rabbit splenic artery (RSA), isolated artery rings contracted with U46619; conditions: cumulative administration, agonistic activity at peak of effect
Chain of dopaminergic receptors D1 (G1SML2 1-448): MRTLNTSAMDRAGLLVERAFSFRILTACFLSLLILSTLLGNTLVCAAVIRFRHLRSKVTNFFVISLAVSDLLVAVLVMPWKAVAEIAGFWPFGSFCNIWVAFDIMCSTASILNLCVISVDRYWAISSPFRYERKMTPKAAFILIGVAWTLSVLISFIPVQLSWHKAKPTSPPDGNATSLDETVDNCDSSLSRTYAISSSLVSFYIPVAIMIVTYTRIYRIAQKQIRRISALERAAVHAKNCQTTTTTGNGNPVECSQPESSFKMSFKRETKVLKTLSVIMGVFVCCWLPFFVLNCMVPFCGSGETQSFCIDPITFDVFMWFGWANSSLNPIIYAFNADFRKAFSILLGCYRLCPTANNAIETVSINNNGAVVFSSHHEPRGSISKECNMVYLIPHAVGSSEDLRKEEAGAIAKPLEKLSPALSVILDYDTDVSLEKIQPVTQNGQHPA
Experimental: Tests of dopaminergic activity on isolated tissues Evaluation of the D1 activity on the rabbit splenic artery (RSA)
Artery rings were prepared according to Semeraro et al., Naunyn. Schnied. Arch. […] These were contracted with U46619 (9,11-dideoxy-11α, 9α -epoxy-methanprostaglandine F2 α) at a submaximal concentration of […].
as §1, §2

| SMILES | EC50 [1] | D1 activity (RSA) expressed as pD2, i.e. -logEC50 [2] |
| --- | --- | --- |
| NCCc1ccc(O)c(O)c1 [Dopamine, reference compound] | 0.0158 µM |  |
| CCCN(CCC)[C@H]1CCc2c(ccc(O)c2CO)C1.O=C(O)/C=C\C(=O)O [Example 6, (S)-N,N-dipropyl-6-hydroxy-5-hydroxymethyl-1,2,3,4-tetrahydro-2-naphthylamine maleate] | 0.01 µM | 6.0 |
